We go through one molecule from ChEMBL document CHEMBL4476880, “beta-arrestin effectors and compositions and methods of use thereof” (2013).

Data set [1] concerns Rattus norvegicus. Briefly: Effect on vascular and cardiac function in normal anesthetized rat assessed as reduction in mean arterial pressure at 0.1 to 10 ug/kg/min, iv. Format: functional, organism-based.
The test system of data set [2] is Rattus norvegicus. Nature of the data set: Effect on heart rate in normal anesthetized rat at 0.1 to 10 ug/kg/min, iv. In kind it is ADME, organism-based. To be noted: in vivo.
Data set [3] relates to Rattus norvegicus. Briefly: Effect on vascular and cardiac function in normal anesthetized rat assessed as increase in slope of end systolic pressure volume relationship at 0.1 to 10 ug/kg/min, iv. Format: functional, organism-based.
The test system of data set [4] is Rattus norvegicus. Briefly: Effect on vascular and cardiac function in normal anesthetized rat assessed as preservation of pre-recruitable stroke work at 0.1 to 10 ug/kg/min, iv. Format: functional, organism-based.
Data set [5] relates to Rattus norvegicus. Nature of the data set: Effect on vascular and cardiac function in normal anesthetized rat assessed as preservation of stroke volume at 0.1 to 10 ug/kg/min, iv. In kind it is functional, organism-based.
For data set [6], the system named is Rattus norvegicus. Nature of the data set: Effect on vascular and cardiac function in normal anesthetized rat assessed as reduction in vaso-constriction at 0.1 to 10 ug/kg/min, iv. In kind it is functional, organism-based.
Data set [7] relates to Canis familiaris. Briefly: Suppression of mean arterial pressure in paced dog model of acute heart failure at 0.01 to 100 ug/kg/min dosed as dose escalation regime with duration of 30 mins for each dose. In kind it is functional, organism-based. The settings on record: Canis lupus familiaris.
For data set [8], the system named is Canis familiaris. Briefly: Suppression of systemic vascular resistance in paced dog model of acute heart failure at 0.01 to 100 ug/kg/min dosed as dose escalation regime with duration of 30 mins for each dose. To be noted: Canis lupus familiaris. In kind it is functional, organism-based.
Data set [9] concerns Canis familiaris. Briefly: Suppression of pulmonary capillary wedge pressure in paced dog model of acute heart failure at 0.01 to 100 ug/kg/min dosed as dose escalation regime with duration of 30 mins for each dose. Format: functional, organism-based. The settings on record: Canis lupus familiaris.
The test system of data set [10] is Canis familiaris. Briefly: Suppression of right arterial pressure in paced dog model of acute heart failure at 0.01 to 100 ug/kg/min dosed as dose escalation regime with duration of 30 mins for each dose. The settings on record: Canis lupus familiaris. Format: functional, organism-based.
Data set [11] relates to Canis familiaris. Nature of the data set: Preservation of cardiac output in paced dog model of acute heart failure at 0.01 to 100 ug/kg/min dosed as dose escalation regime with duration of 30 mins for each dose. In kind it is functional, organism-based. The settings on record: Canis lupus familiaris.
In data set [12] the test system is Canis familiaris. Briefly: Increase in renal blood flow in paced dog model of acute heart failure at 0.01 to 100 ug/kg/min dosed as dose escalation regime with duration of 30 mins for each dose. In kind it is functional, organism-based. To be noted: Canis lupus familiaris.
Data set [13] concerns Canis familiaris. Nature of the data set: Suppression of renal vascular resistance in paced dog model of acute heart failure at 0.01 to 100 ug/kg/min dosed as dose escalation regime with duration of 30 mins for each dose. In kind it is functional, organism-based. The settings on record: Canis lupus familiaris.
In data set [14] the test system is Canis familiaris. Briefly: Increase in urine sodium excretion in paced dog model of acute heart failure at 0.01 to 100 ug/kg/min dosed as dose escalation regime with duration of 30 mins for each dose. To be noted: Canis lupus familiaris. Format: functional, organism-based.
The test system of data set [15] is Canis familiaris. Briefly: Increase in urine output in paced dog model of acute heart failure at 0.01 to 100 ug/kg/min dosed as dose escalation regime with duration of 30 mins for each dose. Format: functional, organism-based. To be noted: Canis lupus familiaris.
The subject of data set [16] is Canis familiaris. Nature of the data set: Effect on renal function parameters in paced dog model of acute heart failure assessed as maintenance of urine potassium at 0.01 to 100 ug/kg/min dosed as dose escalation regime with duration of 30 mins for each dose. In kind it is functional, organism-based. The settings on record: Canis lupus familiaris.
Data set [17] concerns Canis familiaris. Briefly: Effect on renal function parameters in paced dog model of acute heart failure assessed as maintenance of glomerular filtration rate at 0.01 to 100 ug/kg/min dosed as dose escalation regime with duration of 30 mins for each dose. Format: functional, organism-based. The settings on record: Canis lupus familiaris.

Activity calls are given as the source filed them. The rule behind the calls is not given here.

In the case of `CC[C@H](C)[C@H](NC(=O)[C@H](Cc1ccc(O)cc1)NC(=O)[C@@H](NC(=O)[C@H](CCCNC(=N)N)NC(=O)CNC)C(C)C)C(=O)N[C@@H](Cc1cnc[nH]1)C(=O)N1CCC[C@H]1C(=O)N[C@H](C)C(=O)O` [TRV-120027], the Activity result in data set [1] is “Dose-dependent effect”; in data set [2], “Non-Toxic”; in data set [7], “Dose-dependent effect”; in data set [8], “Dose-dependent effect”; in data set [9] it was “Dose-dependent effect”; in data set [10], “Dose-dependent effect”. Also, the Activity result in data set [11], in data set [12], in data set [13], in data set [14], in data set [15] and in data set [16] was “Dose-dependent effect” each time. In addition, the Activity result in [17] is “Dose-dependent effect”. Moreover, the outcome in [3], in [4], in data set [5] and in data set [6] was Active.
